Results as given in article PMC10791743, “Selective CK1α degraders exert antiproliferative activity against a broad range of human cancer cell lines” (Nature Communications, 2024).
Where “and” joins values, the source holds several entries; their conditions need not be identical. Identical values can stand only once. Values belong to the molecule of their own block, whether it stands above or below them.

Columns and labels:
MOLM-13 cells = test: Annexin-V staining for apoptosis, wild type MOLM-13; format: cell-based, human; conditions: for Treatment-induced cell death (annexin-V): 1 μM, 72 h, vs DMSO; for total apoptosis, flow cytometry: MOLM-13; for Late apoptosis, flow cytometry / Early apoptosis, flow cytometry: WT
Experimental: Wild type and CRBN^−/− MOLM-13 cells were grown in 12-well plates (TPP, Techno Plastic Products AG) with 500,000 cells per well in 2 ml total media volume. Cells were treated with 1 μl/ml DMSO or 1 μM compound in triplicate, and incubated for 24 or 72 h at 37 °C. To prepare samples, this buffer was used: 10 mM HEPES, 0.14 M NaCl, 2.5 mM CaCl2 pH 7.4, 2% v/v FBS in UltraPure water (Invitrogen). After incubation, samples were collected in 5-ml tubes for flow cytometry (Falcon). Single-stain controls consisted of ~150 μl of multiple samples combined. Wells were washed with 1 ml of buffer that was added to the corresponding sample tube. Cells were centrifuged at 500×g for 5 min at 4 °C to form a pellet. Supernatant was decanted and cells were washed again with 3 ml of buffer, then centrifuged. After decanting the supernatant, 3 μl of APC-conjugated anti-Annexin-V antibody (BioLegend) was added to each tube in the residual buffer left behind. Samples were mixed by vortex and incubated at room temperature in the dark for 20 min. Samples were then washed and centrifuged a final time, decanting the supernatant and blotting the tubes to remove residual buffer. 50 μl of buffer with DAPI was added to all appropriate samples and mixed, then analyzed by flow cytometry.
Supplementary Fig. 13: Gating for Annexin V flow cytometry analysis. Total cells were gated to remove cell debris, followed by single cell gating on the FSC-A/FSC-H diagonal. Within the single […]
Live cells are negative for both fluorescent markers, DAPI positive/APC negative cells are necrotic, APC positive/DAPI negative cells are still alive but in the early stages of apoptosis, and double positive cells are dead via apoptosis. Percentages of early and late apoptosis were plotted in supplementary figures 4 and 5.
(1 picture or pasted object on this page, not shown here)

p21 = p21 immunoblotting in MOLM-13 cells; format: cell-based, human; conditions: MOLM-13, increasing concentrations, 4 h
CRBN−/− MOLM-13 cells = test: Wild type versus CRBN−/− MOLM-13 cells (viability, CRBN dependence); format: cell-based, human; design: key to cell viability, dose-response replicate values: % viability = 100 − % activity (RLU normalized to negative control); conditions: for cell viability, dose-response replicate values: MOLM-13 CRBN KO
From the text: Having identified SJ7095 as a compound with a potent antiproliferative effect in MOLM-13 cells, we next examined whether the observed effect was CRBN-dependent. […] In an orthogonal approach, we tested SJ7095 in wild-type and CRBN-knockout MOLM-13 cells in a cell viability assay (Supplementary Fig. 1b).
CRBN^−/− MOLM-13 cells were created using CRISPR-Cas9 technology. Briefly, 1 million MOLM-13 cells were transiently transfected with precomplexed ribonuclear proteins (RNPs) consisting of 400 pmol of chemically modified sgRNA (Synthego), 135pmol of SpCas9 protein (St. Jude Protein Production Core), and 500 ng of pMaxGFP (Lonza) via nucleofection (Lonza, 4D-Nucleofector™ X-unit) using solution SF and program EO100 in a 100 µl cuvette according to the manufacturer’s recommended protocol. Transfected cells (GFP+) were single-cell sorted by flow cytometry (St. Jude Flow Cytometry and Cell Sorting Shared Resource) into 96-well tissue culture-treated plates 5 days post nucleofection. Cells were clonally expanded and screened for the desired targeted modification (out-of-frame indels) via targeted deep sequencing using gene-specific primers with partial Illumina adapter overhangs as previously described. Genotyping of clones was performed using CRIS.py[59]. Knockout clones were identified as clones containing only out-of-frame indels. PowerPlex® Fusion System (Promega) was used to confirm final clone identification (Hartwell Center for Biotechnology at St. Jude). All clones tested negative for mycoplasma by the MycoAlert^TMPlus Mycoplasma Detection Kit (Lonza). CRBN knockout confirmed by immunoblot (Supplementary Material).
MOLM-13 cells were plated in Corning 8804BC white 384-well assay plates at the appropriate cell number per well and incubated overnight at 37 °C in a humidified 5 % CO2 incubator. Compounds were transferred to the assay plate from a dose-response plate using a Labcyte Echo 650 Acoustic Liquid Handler (Beckman Coulter , USA). Cytotoxicity was determined following 72 h of incubation using Promega’s CellTiter-Glo reagent according to the manufacturer’s recommendation.
Luminescence was measured on the Envision plate reader (PerkinElmer, USA). Raw luminescence relative light unit (RLU) values for each compound at each concentration were normalized to obtain % activity using the following equation (1): 100 × [(mean(negctrl) – compound)/(mean (negctrl) – mean (posctrl))]. The % activity was converted to % viability using the following equation (2):
(100 – % activity), and then pooled from replicate experiments prior to fitting. Here, negctrl and posctrl refer to the negative (DMSO) and positive controls (staurosporine) on each plate. Dose-response curves were fit to the Hill equation using the GraphPad Prism (version 10). […]

CRBN = target: T1, CRBN (Homo sapiens, UniProt Q96SW2); test: CRBN fluorescence polarization (FP) displacement assay; format: binding; design: key: % activity normalized to DMSO (0) and CC-220 (100) controls
T1 construct: 6XHis (N)
Experimental: The assay cocktail was prepared by combining 6XHis-CRBN-DDB1 protein (200 nM) and Cy5-O-Len probe (30 nM) in 20 mM HEPES pH 7, 150 mM NaCl, 0.005% Tween-20 assay buffer. […] Then 20 μL of the assay cocktail was dispensed to wells of the assay plate with a Multidrop Combi Reagent Dispenser (Thermo Fisher Scientific, USA). The plates were incubated in the dark for 1 h at room temperature and then read on an Envision plate reader (Perkin Elmer, USA). Raw intensity values for each compound at each concentration were normalized to obtain % activity using the following equation: 100×[(mean(negctrl)–compound)/(mean (negctrl)–mean (posctrl))], and then pooled from replicate experiments prior to fitting. Here, negctrl and posctrl refer to the negative (DMSO) and positive controls (CC-220) on each plate. Dose-response curves were fit to the Hill equation using the GraphPad Prism (version 10).

T1 sequence (Q96SW2 whole entry): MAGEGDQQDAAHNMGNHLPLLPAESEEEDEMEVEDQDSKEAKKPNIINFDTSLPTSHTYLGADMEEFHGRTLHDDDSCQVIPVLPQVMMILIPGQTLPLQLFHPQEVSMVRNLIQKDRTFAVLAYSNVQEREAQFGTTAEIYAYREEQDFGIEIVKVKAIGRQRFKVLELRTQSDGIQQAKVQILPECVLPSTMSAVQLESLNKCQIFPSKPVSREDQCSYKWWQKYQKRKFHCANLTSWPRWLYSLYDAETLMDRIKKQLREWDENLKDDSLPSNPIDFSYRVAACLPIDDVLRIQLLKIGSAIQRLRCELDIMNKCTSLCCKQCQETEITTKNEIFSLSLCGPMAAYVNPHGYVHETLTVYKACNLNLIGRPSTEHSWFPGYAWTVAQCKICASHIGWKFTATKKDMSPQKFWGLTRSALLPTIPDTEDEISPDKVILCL
T1 sequence (Q16531 whole entry partner): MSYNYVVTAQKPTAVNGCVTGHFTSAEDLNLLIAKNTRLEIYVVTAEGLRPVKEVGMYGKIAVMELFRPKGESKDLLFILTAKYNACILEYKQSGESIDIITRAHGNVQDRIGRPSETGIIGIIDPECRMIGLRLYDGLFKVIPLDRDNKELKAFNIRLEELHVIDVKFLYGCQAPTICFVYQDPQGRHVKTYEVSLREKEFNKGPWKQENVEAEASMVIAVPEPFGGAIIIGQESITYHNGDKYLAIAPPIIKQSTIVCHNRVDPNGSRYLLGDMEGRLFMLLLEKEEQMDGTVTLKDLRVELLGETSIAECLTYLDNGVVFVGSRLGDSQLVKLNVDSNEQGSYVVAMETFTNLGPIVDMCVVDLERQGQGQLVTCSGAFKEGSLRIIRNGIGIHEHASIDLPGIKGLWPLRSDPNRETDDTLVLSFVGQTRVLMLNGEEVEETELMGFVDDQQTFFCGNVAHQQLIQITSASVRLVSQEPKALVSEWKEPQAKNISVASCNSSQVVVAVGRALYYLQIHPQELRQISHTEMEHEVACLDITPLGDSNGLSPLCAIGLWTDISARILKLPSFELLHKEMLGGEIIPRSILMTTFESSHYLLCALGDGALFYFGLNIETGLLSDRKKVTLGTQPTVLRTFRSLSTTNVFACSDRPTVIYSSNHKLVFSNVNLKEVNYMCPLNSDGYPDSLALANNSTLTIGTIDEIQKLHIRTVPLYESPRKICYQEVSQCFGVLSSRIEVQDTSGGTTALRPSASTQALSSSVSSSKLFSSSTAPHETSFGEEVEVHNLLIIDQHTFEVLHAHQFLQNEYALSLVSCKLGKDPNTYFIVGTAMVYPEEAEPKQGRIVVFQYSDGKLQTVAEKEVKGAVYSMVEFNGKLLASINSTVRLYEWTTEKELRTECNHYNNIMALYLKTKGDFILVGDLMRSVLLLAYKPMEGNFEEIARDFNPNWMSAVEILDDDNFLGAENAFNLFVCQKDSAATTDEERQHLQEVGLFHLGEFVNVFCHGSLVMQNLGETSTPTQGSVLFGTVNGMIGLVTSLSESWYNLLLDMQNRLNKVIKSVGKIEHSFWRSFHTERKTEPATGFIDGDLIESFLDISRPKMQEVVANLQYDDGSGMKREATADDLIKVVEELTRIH

CRBN binding FP, Activity (CRBN; SJ7095, [Compound] 0.00309 mM): 8.11 and 10.4932 and 6.274
CRBN binding FP, Activity (CRBN; SJ7095, [Compound] 0.02781 mM): 14.0709 and 18.2061 and 13.5714
CRBN binding FP, Activity (CRBN; SJ7095, [Compound] 0.08344 mM): 25.188 and 27.6328 and 27.8185
CRBN binding FP, Activity (CRBN; SJ7095, [Compound] 0.25033 mM): 29.8604 and 33.1175 and 27.1236
CRBN binding FP, Activity (CRBN; SJ7095, [Compound] 0.75100 mM): 30.8271 and 30.718 and 33.0309
CRBN binding FP, Activity (CRBN; SJ7095, [Compound] 2.25301 mM): 46.2943 and 45.8008 and 46.583
CRBN binding FP, Activity (CRBN; SJ7095, [Compound] 6.75903 mM): 54.5113 and 62.5976 and 51.6216
CRBN binding FP, Activity (CRBN; SJ7095, [Compound] 20.27708 mM): 59.0226 and 67.7395 and 53.7066
Compound: O=C1CCC(N2Cc3c(CNC(=O)c4ccc(F)cc4)cccc3C2=O)C(=O)N1 (stereo not shown) [SJ7095]
Treatment-induced cell death (annexin-V) (MOLM-13 cells): increased cell death
total apoptosis, flow cytometry (MOLM-13 cells; SI_Fig 4c, DMSO 9.7, 8.6, 9.8): 14.9 and 14.2 and 11
total apoptosis, flow cytometry (MOLM-13 cells; SI_Fig 5c, DMSO 8, 7.6, 6.1): 18.3 and 22.4 and 27.2
Late apoptosis, flow cytometry (MOLM-13 cells; SI_Fig 4b, DMSO 3, 2.7, 3): 4.8 and 4.2 and 3.7
Early apoptosis, flow cytometry (MOLM-13 cells; SI_Fig 4b, DMSO 6.8, 5.8, 6.8): 10.1 and 7.2
Late apoptosis, flow cytometry (MOLM-13 cells; SI_Fig 5b, DMSO 1.5, 1.2, 1.2): 4.9 and 6.3 and 8.6
Early apoptosis, flow cytometry (MOLM-13 cells; SI_Fig 5b, DMSO 6.5, 6.4, 4.9): 13.4 and 16.1 and 18.6
p21 protein levels (p21): dose-dependent upregulation of p21
Antiproliferative activity in wild-type vs CRBN-knockout MOLM-13 (CRBN−/− MOLM-13 cells): CRBN dependent
cell viability, dose-response replicate values (CRBN−/− MOLM-13 cells; Concentration 0.00019646): 106.764 and 101.3 and 98.2605
cell viability, dose-response replicate values (CRBN−/− MOLM-13 cells; Concentration 0.00058939): 112.453 and 102.748 and 97.5209
cell viability, dose-response replicate values (CRBN−/− MOLM-13 cells; Concentration 0.00176818): 107.1 and 103.949 and 100.448
cell viability, dose-response replicate values (CRBN−/− MOLM-13 cells; Concentration 0.00530453): 108.398 and 94.7486 and 104.144
cell viability, dose-response replicate values (CRBN−/− MOLM-13 cells; Concentration 0.0159136): 99.903 and 106.159 and 104.247
cell viability, dose-response replicate values (CRBN−/− MOLM-13 cells; Concentration 0.0477407): 84.8196 and 104.71 and 103.354
cell viability, dose-response replicate values (CRBN−/− MOLM-13 cells; Concentration 0.143222): 100.147 and 105.205 and 99.7326
cell viability, dose-response replicate values (CRBN−/− MOLM-13 cells; Concentration 0.429667): 110.361 and 97.2541 and 107.93
cell viability, dose-response replicate values (CRBN−/− MOLM-13 cells; Concentration 1.289): 106.321 and 101.904 and 97.9209
cell viability, dose-response replicate values (CRBN−/− MOLM-13 cells; Concentration 3.867): 79.059 and 84.9366 and 87.8303

CRBN binding FP, Activity (CRBN; SJ10040, [Compound] 2.71597 mM): 47.7349 and 37.554 and 42.475
CRBN binding FP, Activity (CRBN; SJ10040, [Compound] 8.14792 mM): 56.459 and 48.508 and 56.8103
CRBN binding FP, Activity (CRBN; SJ10040, [Compound] 24.44375 mM): 60.7319 and 59.4621 and 64.1617
CRBN binding FP, Activity (CRBN; SJ10040, [Compound] 73.33125 mM): 69.456 and 67.5893 and 79.2322
Compound: Cc1cccc(C(=O)Nc2ccc3c(c2)CN(C2CCC(=O)NC2=O)C3=O)c1 (stereo not shown) [SJ0040]
Treatment-induced cell death (annexin-V) (MOLM-13 cells): increased cell death
total apoptosis, flow cytometry (MOLM-13 cells; SI_Fig 4c, DMSO 9.7, 8.6, 9.8): 14.9 and 12.6 and 13.6
total apoptosis, flow cytometry (MOLM-13 cells; SI_Fig 5c, DMSO 8, 7.6, 6.1): 33.8 and 33.6 and 34.8
Late apoptosis, flow cytometry (MOLM-13 cells; SI_Fig 4b, DMSO 3, 2.7, 3): 4.1 and 3.7 and 4.5
Early apoptosis, flow cytometry (MOLM-13 cells; SI_Fig 4b, DMSO 6.8, 5.8, 6.8): 10.8 and 9 and 9.1
Late apoptosis, flow cytometry (MOLM-13 cells; SI_Fig 5b, DMSO 1.5, 1.2, 1.2): 11.1 and 11.7 and 11.8
Early apoptosis, flow cytometry (MOLM-13 cells; SI_Fig 5b, DMSO 6.5, 6.4, 4.9): 22.7 and 21.8 and 23.1
viability at 0.00126002 µM (CRBN−/− MOLM-13 cells; Homo sapiens, MOLM-13, MOLM-13 CRBN KO, Conc 0.00126002 uM, read-out: cell viability, dose-response replicate values): 97.2%
viability at 0.0113402 µM (CRBN−/− MOLM-13 cells; Homo sapiens, MOLM-13, MOLM-13 CRBN KO, Conc 0.0113402 uM, read-out: cell viability, dose-response replicate values): 96.7%
viability at 0.0340206 µM (CRBN−/− MOLM-13 cells; Homo sapiens, MOLM-13, MOLM-13 CRBN KO, Conc 0.0340206 uM, read-out: cell viability, dose-response replicate values): 93.1%
viability at 0.102062 µM (CRBN−/− MOLM-13 cells; Homo sapiens, MOLM-13, MOLM-13 CRBN KO, Conc 0.102062 uM, read-out: cell viability, dose-response replicate values): 89.2%
viability at 0.306185 µM (CRBN−/− MOLM-13 cells; Homo sapiens, MOLM-13, MOLM-13 CRBN KO, Conc 0.306185 uM, read-out: cell viability, dose-response replicate values): 88.4%
viability at 0.918556 µM (CRBN−/− MOLM-13 cells; Homo sapiens, MOLM-13, MOLM-13 CRBN KO, Conc 0.918556 uM, read-out: cell viability, dose-response replicate values): 97.5%
viability at 2.75567 µM (CRBN−/− MOLM-13 cells; Homo sapiens, MOLM-13, MOLM-13 CRBN KO, Conc 2.75567 uM, read-out: cell viability, dose-response replicate values): 84.5%
viability at 8.267 µM (CRBN−/− MOLM-13 cells; Homo sapiens, MOLM-13, MOLM-13 CRBN KO, Conc 8.267 uM, read-out: cell viability, dose-response replicate values): 48.7%
cell viability, dose-response replicate values (CRBN−/− MOLM-13 cells; Conc 0.00126002 uM): 101.892 and 99.1853
cell viability, dose-response replicate values (CRBN−/− MOLM-13 cells; Conc 0.00378006 uM): 77.9399 and 92.8153 and 102.961
cell viability, dose-response replicate values (CRBN−/− MOLM-13 cells; Conc 0.0113402 uM): 90.8518 and 98.3247
cell viability, dose-response replicate values (CRBN−/− MOLM-13 cells; Conc 0.0340206 uM): 99.2582 and 100.85
cell viability, dose-response replicate values (CRBN−/− MOLM-13 cells; Conc 0.102062 uM): 95.1601 and 101.209
cell viability, dose-response replicate values (CRBN−/− MOLM-13 cells; Conc 0.306185 uM): 92.1664 and 101.967
cell viability, dose-response replicate values (CRBN−/− MOLM-13 cells; Conc 0.918556 uM): 93.1747 and 96.6395
cell viability, dose-response replicate values (CRBN−/− MOLM-13 cells; Conc 2.75567 uM): 84.7802 and 96.7661
cell viability, dose-response replicate values (CRBN−/− MOLM-13 cells; Conc 8.267 uM): 53.0309 and 66.5957
